Values after ≈ are worked out from the molar mass of the structure shown. Where two headings read alike, the source gives them in different places. One block for each compound: values may come before it.
Columns and labels:
[1] = Solubility in 0.1 M pH 7.0 phosphate buffer (bioassay and UV-assay); format: physicochemical; details: for solubility at 4 h: 0.1 m phosphate buffer, pH 7, aqueous buffer
Experimental: *Stirred at 25° C. for 4 hours in 0.1 M pH 7.0 phosphate
buffer--filtered through Milipore filter (0.45 μ)--assayed
spectroscopically against its own standard.
The test solution and the standard solution are prepared as described below.
About 10 mg. (1) of a sample is placed in a vial and mixed with 1 ml. of 0.1 M phosphate buffer (pH 7.0). The vial is stoppered, sealed with a metal cap, placed on a rotary shaker and agitated at 160 rpm for 4 hr. at 25° C. The solution is filtered through a Millipore filter (HAWP 01300, mean pore size 0.45 μm). The filtrate is diluted to use for bioassay and UV assay as follows:
About 2 mg. of the same sample is weighed precisely and dissolved in 4 ml. of 1% K2 CO3 solution^(3) (usually within one minute). The solution is diluted exactly to 50 ml. in a flask with 0.1 M pH 7.0 phosphate buffer and used for the preparation of the standard solutions for bioassay and UV-assay as follows:
(1) A 20 mg. or more sample is used when the sample is expected to be more soluble.
(2) 0.1 M pH 7.0 phosphate buffer is used as a diluent in the present test and also as a reference solution in UV-assay.
(3) It was previously confirmed that almost the same result is obtained when the sample is solubilized in DMSO (dimethylsulfoxide) and then diluted similarily with the buffer.
(4) Volume of the solution is measured precisely with an appropriate pipette or flask.
BA: Bioassay, UV: UV-assay Results given for the same compound on different lines were obtained using samples from different lots.

E coli Juhl = test: Minimum curative dose in infected mice, E coli Juhl; format: in vivo; details: Mus musculus, sc; subcutaneous, mice infected with lethal dose of E coli Juhl; read-out: CD50 (minimum curative dose for 50% of the mice)
S. aureus BX-1633 = test: Minimum curative dose in infected mice, S. aureus BX-1633; format: in vivo; details: Staphylococcus aureus, BX1633, sc; subcutaneous, mice infected with lethal dose of S. aureus BX-1633; read-out: CD50 (minimum curative dose for 50% of the mice)
E. coli ATCC 8739 = test: M.I.C. by Tube Dilution, E. coli ATCC 8739; format: cell-based; details: Escherichia coli, ATCC8739, overnight at 37° C.
K. pneumoniae A9977 = test: M.I.C. by Tube Dilution, K. pneumoniae A9977; format: cell-based; details: Klebsiella pneumoniae, 10^-4 dilution, overnight at 37° C.
S. aureus BX1633 A9606 = test: M.I.C. by Tube Dilution, S. aureus BX1633 A9606; format: cell-based; details: Nutrient Broth, overnight at 37° C.; for MIC: Staphylococcus aureus, BX1633A9606, S. aureus BX1633 A9606
Mycobacterium 607 = test: M.I.C. by Tube Dilution, Mycobacterium 607; format: cell-based; details: overnight at 37° C.
Ps. aeruginosa A9843 = test: M.I.C. by Tube Dilution, Ps. aeruginosa A9843; format: cell-based; details: Pseudomonas aeruginosa, 10^-4 dilution, overnight at 37° C.
E. coli Juhl A15119 = test: M.I.C. by Tube Dilution, E. coli Juhl A15119; format: cell-based; details: Escherichia coli, JUHLA15119, 10^-4 dilution, overnight at 37° C.
D. pneumoniae A9585 = test: M.I.C. by Tube Dilution, D. pneumoniae A9585; format: cell-based; details: Streptococcus pneumoniae, A9585, D. pneumoniae A9585 + 5% serum; 50% Nutrient Broth - 45% Antibiotic Assay Broth; overnight at 37° C.
Ser. marcescens A20019 = test: M.I.C. by Tube Dilution, Ser. marcescens A20019; format: cell-based; details: Serratia marcescens, 10^-4 dilution, overnight at 37° C.
S. aureus Smith A9537 = test: M.I.C. by Tube Dilution, S. aureus Smith A9537; format: cell-based; details: Staphylococcus aureus, 10^-4 dilution, overnight at 37° C.
Sal. enteritidis A9531 = test: M.I.C. by Tube Dilution, Sal. enteritidis A9531; format: cell-based; details: Salmonella enterica, 10^-4 dilution, overnight at 37° C.
K. pneumoniae A15130 = test: M.I.C. by Tube Dilution, K. pneumoniae A15130; format: cell-based; details: Klebsiella pneumoniae, 10^-4 dilution, overnight at 37° C.
Pr. mirabilis A9900 = test: M.I.C. by Tube Dilution, Pr. mirabilis A9900; format: cell-based; details: Proteus mirabilis, 10^-4 dilution, overnight at 37° C.
Pr. morganii A15153 = test: M.I.C. by Tube Dilution, Pr. morganii A15153; format: cell-based; details: Morganella morganii, 10^-4 dilution, overnight at 37° C.
E. coli NIHJ = test: M.I.C. by Tube Dilution, E. coli NIHJ; format: cell-based; details: Escherichia coli, overnight at 37° C.
S. aureus Russel = test: M.I.C. by Tube Dilution, S. aureus Russel; format: cell-based; details: Nutrient Broth, overnight at 37° C.; for MIC: Staphylococcus aureus
Str. pyogenes A9604 = test: M.I.C. by Tube Dilution, Str. pyogenes A9604; format: cell-based; details: Streptococcus pyogenes; Str. pyogenes A9604 + 5% serum; 50% Nutrient Broth - 45% Antibiotic Assay Broth; overnight at 37° C.
[2] = 0.1 M phosphate buffer (pH 7.0), 4 hr. at 25° C., UV-assay, read-out: Solubility, UV (UV-assay)
[3] = 0.1 M phosphate buffer (pH 7.0), 4 hr. at 25° C., bioassay, read-out: Solubility, BA (bioassay)
[4] = stirred at 25° C. for 4 hours in 0.1 M pH 7.0 phosphate buffer, assayed spectroscopically against its own standard, read-out: Solubility
[5] = UV-assay, read-out: Solubility (UV)
[6] = bioassay, read-out: Solubility (BA)

solubility at 4 h [1, 2]: 4600 µg/mL (≈ 9280 µM)
solubility at 4 h [1, 3]: 4300 µg/mL (≈ 8680 µM)
solubility at 4 h [1, 4]: 4300 to 4600 µg/mL (≈ 8680 to 9280 µM)
SMILES: Cc1nnc(SCC2=C(C(=O)O)N3C(=O)C(NC(=O)CC4=C(CN)CCCC4)[C@H]3SC2)s1 (stereo partly drawn) [Example 4, 7-[α-(2-aminomethyl-1-cyclohexenyl)acetamido]-3-(5-methyl-1,3,4-thiadiazol-2-ylthiomethyl)-3-cephem-4-carboxylic acid]

SMILES: Cn1nnnc1SCC1=C(C(=O)O)N2C(=O)C(NC(=O)Cc3ccccc3CN)C2SC1 (stereo not drawn) [MR-S94, reference compound]
ED50 (E coli Juhl): 4.4 mg/kg
solubility at 4 h [1, 2]: 1900 µg/mL (≈ 4000 µM)
solubility at 4 h [1, 3]: 2000 µg/mL (≈ 4210 µM)
solubility at 4 h [1, 4]: 1900 µg/mL (≈ 4000 µM)
ED50 (S. aureus BX-1633): 3.4 mg/kg

MIC (E. coli ATCC 8739): 25 µg/mL (≈ 59 µM)
MIC (K. pneumoniae A9977): 12.5 to 25 µg/mL (≈ 29.5 to 59 µM)
MIC (S. aureus BX1633 A9606): 3.1 µg/mL (≈ 7.32 µM)
MIC (Mycobacterium 607): > 100 µg/mL
MIC (Ps. aeruginosa A9843): > 100 µg/mL
solubility at 4 h [1, 5]: 5300 µg/mL (≈ 12500 µM)
solubility at 4 h [1, 6]: 5400 µg/mL (≈ 12800 µM)
MIC (E. coli Juhl A15119): 25 µg/mL (≈ 59 µM)
MIC (D. pneumoniae A9585): 0.16 to 0.31 µg/mL
MIC (Ser. marcescens A20019): > 100 µg/mL
MIC (S. aureus Smith A9537; SMITHA9537, S. aureus Smith A9537 + 50% serum): 3.1 µg/mL
MIC (S. aureus Smith A9537; SMITHA9537, S. aureus Smith A9537, Nutrient Broth): 0.8 µg/mL (≈ 1.89 µM)
MIC (Sal. enteritidis A9531): 12.5 µg/mL (≈ 29.5 µM)
MIC (K. pneumoniae A15130): 12.5 to 50 µg/mL (≈ 29.5 to 118 µM)
MIC (Pr. mirabilis A9900): 50 µg/mL (≈ 118 µM)
MIC (Pr. morganii A15153): > 100 µg/mL
MIC (E. coli NIHJ): 25 to 50 µg/mL (≈ 59 to 118 µM)
MIC (S. aureus Russel): 0.8 to 1.6 µg/mL (≈ 1.89 to 3.78 µM)
SMILES: CC(=O)OCC1=C(C(=O)O)N2C(=O)C(NC(=O)CC3=C(CN)CCCC3)C2SC1 (stereo not drawn) [Example 16, 7-[α-(2-Aminomethy-1-cyclohexenyl)acetamido]cephalosporanic acid]

solubility at 4 h [1, 2]: 900 µg/mL (≈ 1830 µM)
solubility at 4 h [1, 3]: 1200 µg/mL (≈ 2440 µM)
solubility at 4 h [1, 4]: 900 µg/mL (≈ 1830 µM)
SMILES: Cc1nnc(SCC2=C(C(=O)O)N3C(=O)C(NC(=O)Cc4ccccc4CN)C3SC2)s1 (stereo not drawn) [MR-S96, reference compound]

Solubility, UV (UV-assay) ([1]; 0.1 M phosphate buffer (pH 7.0), 4 hr. at 25° C., UV-assay, 240 min): 3600 µg/mL (≈ 6820 µM)
solubility at 4 h [1, 2]: 3900 µg/mL (≈ 7390 µM)
solubility at 4 h [1, 3]: 4200 µg/mL (≈ 7960 µM)
solubility at 4 h [1, 4]: 3600 µg/mL (≈ 6820 µM)
SMILES: NCc1ccccc1CC(=O)NC1C(=O)N2C(C(=O)O)=C(CSc3ccc4nnc(O)n4n3)CSC12 (stereo not drawn) [BB-S207, reference compound]

SMILES: CC1=C(C(=O)O)N2C(=O)C(NC(=O)CC3=C(CN)CCCC3)C2SC1 (stereo not drawn) [Example 17, 7-[α-(2-Aminomethyl-1-cyclohexenyl)acetamido]desacetoxycephalosporanic acid]
MIC (E. coli ATCC 8739): > 100 µg/mL
MIC (K. pneumoniae A9977): > 100 µg/mL
M.I.C. (S. aureus BX1633 A9606; S. aureus BX1633 A9606, listed as 6x): 25 Mcg./ml.
MIC (S. aureus BX1633 A9606): > 12.5 µg/mL
MIC (Str. pyogenes A9604): 1.25 to 2.5 µg/mL
MIC (Mycobacterium 607): > 100 µg/mL
MIC (Ps. aeruginosa A9843): > 100 µg/mL
solubility at 4 h [1, 5]: 3300 µg/mL (≈ 9030 µM)
solubility at 4 h [1, 6]: 4100 µg/mL (≈ 11200 µM)
MIC (E. coli Juhl A15119): > 100 µg/mL
MIC (Ser. marcescens A20019): > 100 µg/mL
MIC (Sal. enteritidis A9531): > 100 µg/mL
MIC (K. pneumoniae A15130): > 100 µg/mL
MIC (Pr. mirabilis A9900): > 100 µg/mL
MIC (Pr. morganii A15153): > 100 µg/mL
MIC (E. coli NIHJ): > 100 µg/mL
M.I.C. (S. aureus Russel; listed as 6x): 12.5 Mcg./ml.
MIC (S. aureus Russel): > 12.5 µg/mL

solubility at 4 h [1, 2]: 4400 µg/mL (≈ 9020 µM)
solubility at 4 h [1, 3]: 4400 µg/mL (≈ 9020 µM)
solubility at 4 h [1, 4]: 4400 µg/mL (≈ 9020 µM)
SMILES: NCc1ccccc1CC(=O)NC1C(=O)N2C(C(=O)O)=C(CSc3ccc(O)nn3)CSC12 (stereo not drawn) [BB-S150, reference compound]

— US3946000A, “7-[α-(2-Aminomethyl-1-cyclohexenyl)-acetamido]-3-heterocyclic thiomethyl-3-cephem-4-carboxylic acids” (Bristol-Myers Company, priority 1973, dated 1976)
